Laboratory results published in US5514662A, “Use of amphotericin B derivatives as protease inhibitors” (priority 1991, dated 1996).

How the values were obtained:
[1] = target: protease p10 (Human immunodeficiency virus type 1 (BRU ISOLATE), UniProt P03367); assay: Activity on recombinant protease p10; type: biochemical; settings: 1 μM for DABF-AmB
Method: DABF-AmB was tested, at a concentration of 1 μM, on various proteases (papain, chymotrypsin, kallicrein, leucocyte elastase, cathopsin D and recombinant protease p10) under conditions and in the presence of substrates appropriate for each of the proteases tested.

[2] = system: LAV/BRU strain of HIV-1; assay: Reverse transcriptase activity in supernatants of HIV-1 infected Jurkat and CEM cells; type: cell-based
Method: The T cells (Jurkat and CEM) used are very permissive to HIV infection. They are cultured in RPMI 1640 medium supplemented with 10% foetal calf serum, 2 mM of glutamine and a mixture of penicillin and streptomycin. The peripheral blood mononuclear cells are obtained from blood from healthy donors, isolated on a Ficoll Hypaque gradient and stimulated with 10 μg/ml of phytohaemagglutinin A (PHA), for two days, in RPMI 1640 medium supplemented, prior to the infection by HIV, with amikacin and vancomycin (10 mg/ml), polybrene (1 mg/ml) and anti-interferon gamma serum (5 U/ml). After infection, the PBMCs are cultured (10^5 per well) in flat-bottomed 96-well plates in the same RPMI 1640 medium (200 μl per well).
Infectious preparations of the LAV/Bru strain of HIV-1 are obtained from chronically infected CEM cell (clone 13) culture supernatants filtered through a 0.45-μm filter.
(§1) For the infection, fresh Jurkat or CEM type cells are centrifuged and the pellet is incubated for 2 hours at 37° C. with the viral preparation (10000 cpm of reverse transcriptase activity/10^6 cells, which corresponds to a multiplicity of infection of 0.04 to 0.1). The cells are then washed and resuspended (0.5×10^6/ ml) in fresh culture medium. Reverse transcriptase activity is determined at specific times after the infection, using the acellular infected cell supernatant.
The reverse transcriptase activity is determined at the indicated times using the culture supernatant, according to the procedure described by REY et al., Biochem. Res. Comm. 121, 126-133 (1984).
The Jurkat and CEM type T cells are infected with the LAV/BRU strain of HIV-1.
Viral infection and replication are monitored by measuring the reverse transcriptase activity in the culture supernatants.
To measure the anti-HIV activity of DABF-AmB, infected cells are cultured in the presence of increasing doses (between 0.1 μM and 100 μM) of the product; […] kept constant during the infection by carrying out a one half dilution, every 3 days, of the growing cells in fresh medium containing the desired concentration.
The corresponding results are illustrated in FIGS. 3b and 3d: the reverse transcriptase activity measured on the 8th day of the viral infection is represented on the y axis and the DABF-AmB concentration on the x axis.

[3] = system: HIV-1 isolates derived from patients; assay: Infection of PBMCs by HIV-1 isolates derived from patients; type: cell-based; settings: 10 μM, 10 viral strains derived from patients, RT activity after 10 days
Method: PBMCs were infected under the conditions described above in the general procedures, with various HIV-1 isolates derived from patients, or identified as resistant to AZT. The anti-viral effect of DABF-AmB was determined by measuring the RT activity in the supernatants after 10 days of culture.

[4] = system: viral antigen p24; assay: Expression of soluble viral antigen p24 in HIV-1 infected Jurkat and CEM cells; type: cell-based
Method: as §1
The viral antigen p24 was quantified in the infected-cell supernatant by radioimmunological assay using the procedure recommended by the manufacturer (ABBOTT, Diagnostics Division).
The expression of the soluble viral antigen p24 was investigated at the same time as the reverse transcriptase activity, in the cell culture supernatants.
The AmB treatment is carried out under the same conditions as the DABF-AmB treatment.
In another experiment, 10 μM of DABF-AmB are added either during pretreatment 24 hours before the infection, or alternatively during the 2-hour inoculation stage, or alternatively during continuous treatment, as described above, for 12 days following the infection.

[5] = system: Jurkat cells; assay: Cell viability of Jurkat cells; type: cell-based, human; settings: concentrations above 100 μM
From the text: Cell viability was estimated at the same time. […] It therefore appears that DABF-AmB inhibits the replication of HIV at doses which are not cytotoxic.

[6] = system: gp120; assay: Membrane expression of gp120 in HIV-1 infected Jurkat and CEM cells; type: cell-based; settings: 10 μM continuous, both cell lines, 8th day
Method: Membrane expression of CD4 and gp120 is measured by means of the monoclonal antibodies OKT4 (0,5 μg/ml), 110-4 (2 μg/ml) respectively, which are stained using a […].
The fluorescence is measured by means of a FACSTAR cell counter (BECTON DICKINSON, MOUNTAIN VIEW, Calif.). The results are expressed as mean fluorescence intensity.
The anti-gpl10 monoclonal antibody 110-4 (GENETIC SYSTEMS CORP., Seattle, Wash.) also recognizes gP120 at the surface of the T cells.
Immunofluorescence analyses are carried out on the 8th day of the infection in order to verify whether the inhibition of HIV replication by DABF-AmB results in 10 a reduced membrane expression of viral antigens.

[7] = target: T1, reverse transcriptase (Human immunodeficiency virus type 1 (BRU ISOLATE), UniProt P03367); assay: Direct action on reverse transcriptase in vitro; type: biochemical
T1 construct: probably viral enzyme of LAV/BRU (LAI) culture supernatant

[8] = system: HRV14; assay: Cytopathogenic effect of HRV14 in HeLa-Ohio cells; type: cell-based
Method: HeLa-Ohio cells cultured until they have become confluent, are infected with a suspension of HRV14 virus. The cytopathogenic effect of the virus is evaluated by staining the cells with a 0.5% solution of crystal violet and 20% of methanol; after rinsing the plates with water, the optical density is read at 550 nm.
For the rest of the experiment, the cells are infected with a viral suspension with a titre such that 50% of the cells are killed after 3 days on control cells not receiving any treatment. 1 hour after the infection, the test product (AmB or DABF-AmB) is added at concentrations ranging from 0.03 to 100 μM. The percentage inhibition of the cytopathogenic effect is determined as follows:
OD (treated infected cells)-OD (infected cells)!
OD (healthy cells)-OD (infected cells)!
The effect of the addition of DABF-AmB was tested at various times: preincubation of the cells with DABF-AmB before the viral infection; addition of DABF-AmB at the time of the infection; addition of DABF-AmB after the infection, during the period of viral proliferation.

[9] = 10 μM added during the 2-hour inoculation stage
[10] = 10 μM added prior to infection (24 hours pretreatment)

**Q.** `C[C@@H]1[C@H](O)[C@@H](C)/C=C/C=C/C=C/C=C/C=C/C=C/C=C/[C@H](O[C@@H]2O[C@H](C)[C@@H](O)[C@H](NCC(=O)[C@@H](O)[C@@H]3OC(c4ccccc4)OC[C@H]3O)[C@@H]2O)C[C@@H]2O[C@](O)(C[C@@H](O)C[C@@H](O)[C@H](O)CC[C@@H](O)C[C@@H](O)CC(=O)O[C@H]1C)C[C@H](O)[C@H]2C(=O)O` (stereo partly drawn) [DABF-AmB, 1-deoxy-1-amino-4,6-O-benzylidene-D-fructosyl-AmB] was tested. Which “inhibition of protease p10” value [1] did it give?
**A.** does not inhibit

**Q.** What about the “inhibition of reverse transcriptase activity” value [2, 9] of the same molecule?
**A.** does not bring about any significant inhibition

**Q.** And the “inhibition of reverse transcriptase activity” value [2, 10]?
**A.** does not bring about any significant inhibition

**Q.** And the inhibition at 10 µM ([2]; Human immunodeficiency virus 1, 192 h, Jurkat and CEM cells, 10 μM, 8th day, N=4)?
**A.** 88%

**Q.** What about the minimal effective concentration ([2]; Human immunodeficiency virus 1, 192 h, Jurkat and CEM cells, 8th day, read-out: concentration from which inhibition of reverse transcriptase activity is observed) of the same molecule?
**A.** ≥ 5 µM

**Q.** And the “inhibition of reverse transcriptase activity (in words)” value ([2]; Jurkat and CEM cells, concentrations below 1 μM)?
**A.** No significant inhibition

**Q.** What about the “inhibition of infection of PBMC” value [3] of the same molecule?
**A.** substantially reducing, or even completely inhibiting

**Q.** What about the “inhibition of p24 secretion” value [4, 9] of the same molecule?
**A.** does not bring about any significant inhibition

**Q.** What about the “inhibition of p24 secretion” value [4, 10] of the same molecule?
**A.** does not bring about any significant inhibition

**Q.** And the minimal effective concentration ([4]; Human immunodeficiency virus 1, 288 h, read-out: concentration for significant inhibition of p24)?
**A.** > 5 µM

**Q.** And the “efficacy on the multiplication of HIV compared with AmB” value ([4]; p24, 10 μM, 4 and 8 days)?
**A.** substantially greater than that of AmB

**Q.** What about the cytotoxic effect [5] of the same molecule?
**A.** no cytotoxic effect

**Q.** What about the “membrane expression of gp120” value [6] of the same molecule?
**A.** substantially reduces

**Q.** What about the “direct action on reverse transcriptase activity” value [7] of the same molecule?
**A.** no direct action

**Q.** What about the “concentration from which cytopathogenic effects are completely inhibited” value ([8]; added 1 hour after infection) of the same molecule?
**A.** ≥ 10 µM

**Q.** And the IC50 ([8]; added 1 hour after infection, read-out: IC50 (50% inhibition of the cytopathogenic effect))?
**A.** 5 µM

**Q.** What about the “stage of action on HRV14 by time of addition” value ([8]; addition before, at time of, or after infection) of the same molecule?
**A.** acts essentially during viral proliferation
